I100 data for one compound are collected here from patent publication US20030097692A1, “Plants with imidazolinone-resistant ALS” (priority 2000, published 2003).

The test system of the assay is Arabidopsis seedlings. Description: Dose-response of imazethapyr spray on 7-day-old Arabidopsis seedlings (foliar damage). Type of assay: in vivo, Arabidopsis thaliana. As to conditions: repeated dose-response experiments, spray application, scored for foliar damage at 16 days post-treatment. How it is done:
EMS-mutagenized M2 generation Arabidopsis thaliana (cv. Col-0) seeds were obtained from Lehle Seeds, Round Rock, Texas under catalog number M2E02-02. Flats were seeded to provide approximately one million ems-mutagenized seeds. The seeded flats were then watered by sub-irrigation, covered with transparent plastic domes, and maintained at 4° C. and 70% relative humidity for 4 days in the dark. At the end of this period the growth chamber conditions were reset to 21° C., 70% relative humidity under a 16 hour photoperiod, with soil-surface light intensity adjusted to approximately 150 uEinsteins/m^2/s. The flats were maintained under these conditions for seven days prior to imazethapyr, an imidazolinone treatments. The plastic domes were removed 2 days before the treatments to acclimate the plants to ambient humidity.
Based on repeated dose-response experiments using 7-day-old Arabidopsis seedlings grown under the conditions described above, it was determined that the I100 for imazethapyr was approximately 0.035 lbs. active ingredient per acre (a.i./acre). EMS-mutagenized seedlings were screened at a rate equivalent to approximately twice the 1100 value, or 0.07 lbs. a.i./acre. […] Seedlings were then returned to the growth chamber, and scored for foliar damage at 16 days post-treatment.

Turning to `CCc1cnc(C2=NC(C)(C(C)C)C(=O)N2)c(C(=O)O)c1` (stereo not shown) [imazethapyr, 2-[4,5-dihydro-4-methyl-4-(1-methylethyl)-5-oxo-1H-imidazol-2-yl]-5-ethyl-3-pyridinecarboxylic acid], the I100 entry is given as “approximately 0.035 lbs. active ingredient per acre”.
